Test results published in patent US4276304A, “Novel benzylalcohol derivative and process for preparing the same” (priority 1979, dated 1981).
Where “and” joins values, the source holds several entries; their conditions need not be identical. Equal entries are not always repeated. Where two headings read alike, the source gives them in different places.

Columns and labels:
blood sugar [1] = assay: Blood sugar-lowering activity (oral test compound, subcutaneous glucose load); assay type: in vivo, male ddY mice; conditions: for minimal effective dose: Mus musculus, 1 h, read-out: Minimum effective dose (blood sugar-lowering activity)
Procedure: For example, when the blood sugar-lowering activity was estimated by orally administering a test compound to mice immediately before subcutaneous injection of glucose, said activity of the compound of the present invention was about 100 to about 1000 times stronger than that of Phenformin (Chemical name: 1-phenethylbiguanide).
An aqueous solution or suspension (10 ml/kg) of a test compound was administered orally through a stomach tube to a group of male ddY mice (each group consisting of five mice) which fasted for 20 hours. A physiological saline solution (10 ml/kg) containing 10 w/v % glucose was injected subcutaneously to the mice immediately after the oral administration of the test compound. One hour after the injection of glucose, 0.02 ml of blood was collected from the tail vein of the mice. Then, the amount of glucose in the blood sample was estimated by the glucose oxidase method (H. U. Bergmeyer & E. Bernt, "Methods of Enzymatic Analysis", H. U. Bergmeyer (Ed.), Acadamic Press, New York & London, 1963, page 123). The blood sugar-lowering activity of the test compound was calculated by the following formula: [formula] Further, on the basis of the potency ratio calculated above, the activity of the test compound was expressed as follows: […]

blood platelets = assay: Preventive effect upon the aggregation of blood platelets (collagen-induced, platelet-rich plasma); assay type: cell-based, male Sprague-Dawley rats; conditions: for inhibition at 100 µg/mL: Rattus norvegicus, Platelet
blood sugar [2] = conditions: U.S. Pat. Nos. 4,032,575 and 4,131,686, Japanese Patent Publication No. 71428/1977; cited from earlier work
mice = assay: Acute toxicity / maximum tolerance dose (intraperitoneal injection); assay type: in vivo; conditions: 48 hours after intraperitoneal injection
Procedure: For example, the maximum tolerance dose (M.T.D.) of α-[(α,α-dimethyl-3,4-dimethoxyphenethylamino)methyl]-2-benzyloxybenzylalcohol oxalate and α-[(α,α-dimethyl-3,4-dimethoxyphenethylamino)methyl]-2-chlorobenzylalcohol hydrochloride which was estimated 48 hours after intraperitoneal injection thereof to a group of 4 mice was not less than 100 mg/kg.

[3] = 100 μg/ml, graded against acetylsalicylic acid 100 μg/ml
[4] = test compound 100 μg/ml, collagen, rat PRP
[5] = read-out: Inhibition (%) against platelet aggregation, A* (test compound group)

Compound: α-[(α,α-dimethyl-2,3,4-trimethoxyphenethylamino)methyl]- 2-chlorobenzylalcohol hydrochloride [Test compound 14]
- Minimum effective dose (blood sugar-lowering activity) (blood sugar [1]; oral, mice): 0.1 mg/kg
- Platelet aggregation inhibiting activity (blood platelets; [3]): ++
- Inhibition (%) against platelet aggregation, A* (test compound group) (blood platelets; [4]): 93%

Compound: α-[(α,α-dimethyl-3,4-dimethoxyphenethylamino)methyl]-2-methoxybenzylalcohol hydrochloride [Test compound 8]
- Minimum effective dose (blood sugar-lowering activity) (blood sugar [1]; oral, mice): 1.0 mg/kg
- Platelet aggregation inhibiting activity (blood platelets; [3]): ++
- Inhibition (%) against platelet aggregation, A* (test compound group) (blood platelets; [4]): 57%

Compound: α-[(α,α-dimethyl-4-methoxyphenethylamino)methyl]-2-methoxybenzylalcohol 1/2 oxalate [Test compound 3]
- Minimum effective dose (blood sugar-lowering activity) (blood sugar [1]; oral, mice): 1.0 mg/kg
- Platelet aggregation inhibiting activity (blood platelets; [3]): + (not less than 10% inhibition of platelet aggregation but said percentage inhibition was not higher than that of acetylsalicylic acid (100 μg/ml))
- Inhibition (%) against platelet aggregation, A* (test compound group) (blood platelets; [4]): 57%

Compound: COc1ccc(CCNCC(O)c2ccccc2O)cc1OC (stereo not drawn) [α-[(3,4-dimethoxyphenethylamino)methyl]-2-hydroxybenzylalcohol, reference compound]
- preventive effect upon the aggregation of blood platelets (in words) (blood platelets): no substantial preventive effect
- blood sugar-lowering activity (in words) (blood sugar [2]): show a blood sugar-lowering activity

Compound: α-[(α,α-dimethyl-3,4-dimethoxyphenethylamino)methyl]-2-hydroxybenzylalcohol 1/2 oxalate [Test compound 6]
- Minimum effective dose (blood sugar-lowering activity) (blood sugar [1]; oral, mice): 1.0 mg/kg
- Platelet aggregation inhibiting activity (blood platelets; [3]): ++

Compound: α-[(α,α-dimethyl-3,4-dimethoxyphenethylamino)methyl]-2-benzyloxybenzylalcohol oxalate [Test compound 7]
- Minimum effective dose (blood sugar-lowering activity) (blood sugar [1]; oral, mice): 0.3 mg/kg
- Platelet aggregation inhibiting activity (blood platelets; [3]): + (not less than 10% inhibition of platelet aggregation but said percentage inhibition was not higher than that of acetylsalicylic acid (100 μg/ml))
- Inhibition (%) against platelet aggregation, A* (test compound group) (blood platelets; [4]): 17%
- maximum tolerance dose (M.T.D.) (mice): not less than 100 mg/kg

Compound: α-[(α,α-dimethyl-3,4-methylenedioxyphenethylamino)methyl]-2-methoxybenzylalcohol 1/2 succinate [Test compound 17]
- Minimum effective dose (blood sugar-lowering activity) (blood sugar [1]; oral, mice): 2.0 mg/kg

Compound: CC(=O)Oc1ccccc1C(=O)O [acetylsalicylic acid, reference compound]
- Inhibition (%) against platelet aggregation, B** (acetylsalicylic acid group) (blood platelets; acetylsalicylic acid 100 μg/ml, comparison group for the test compound of the same line): 31% and 58% and 50% and 56% and 54%

Compound: CCCCOc1ccccc1C(O)CNC(C)(C)Cc1ccc(OC)cc1 (centres unmarked) [compound 4]
- minimal effective dose (blood sugar [1]; oral, mice): 0.3 mg/kg

Compound: COc1ccc(CCNCC(O)c2ccccc2OCc2ccccc2)cc1OC (stereo not drawn) [α-[(3,4-dimethoxyphenethylamino)methyl]-2-benzyloxybenzylalcohol]
- blood sugar-lowering activity (in words) (blood sugar [2]): show a blood sugar-lowering activity

Compound: α-[(α,α-dimethyl-4-methoxyphenethylamino)methyl]-2-benzyloxybenzylalcohol hydrochloride [Example 7]
- Minimum effective dose (blood sugar-lowering activity) (blood sugar [1]; oral, mice): 0.3 mg/kg
- Platelet aggregation inhibiting activity (blood platelets; [3]): ++
- Inhibition (%) against platelet aggregation, A* (test compound group) (blood platelets; [4]): 90%

Compound: α-[(α,α-dimethyl-4-methoxyphenethylamino)methyl]-2-n-butoxybenzylalcohol hydrochloride [Test compound 4]
- Minimum effective dose (blood sugar-lowering activity) (blood sugar [1]; oral, mice): 0.1 mg/kg
- Platelet aggregation inhibiting activity (blood platelets; [3]): + (not less than 10% inhibition of platelet aggregation but said percentage inhibition was not higher than that of acetylsalicylic acid (100 μg/ml))
- Inhibition (%) against platelet aggregation, A* (test compound group) (blood platelets; [4]): 31%

Compound: COc1ccc(CC(C)(C)NCC(O)c2ccccc2Cl)cc1.Cl (stereo not drawn) [Test compound 5, α-[(α,α-dimethyl-4-methoxyphenethylamino)-methyl]-2-chlorobenzylalcohol hydrochloride]
- minimal effective dose (blood sugar [1]; po): 0.1 mg/kg

Compound: COc1ccc(CC(C)(C)NCC(O)c2ccccc2OCc2ccccc2)cc1 (centres unmarked) [compound 2]
- minimal effective dose (blood sugar [1]; oral, mice): 1 mg/kg
- inhibition at 100 µg/mL (blood platelets; 100 μg/ml, graded against acetylsalicylic acid 100 μg/ml, read-out: Platelet aggregation inhibiting activity): > 10%
- inhibition at 100 µg/mL (blood platelets; test compound 100 μg/ml, collagen, rat PRP, read-out: Inhibition (%) against platelet aggregation, A* (test compound group)): 27%

Compound: α-[(α,α-dimethyl-3,4-dimethoxyphenethylamino)methyl]-2-n-butoxybenzylalcohol hydrochloride [Test compound 9]
- Minimum effective dose (blood sugar-lowering activity) (blood sugar [1]; oral, mice): 1.0 mg/kg
- Platelet aggregation inhibiting activity (blood platelets; [3]): + (not less than 10% inhibition of platelet aggregation but said percentage inhibition was not higher than that of acetylsalicylic acid (100 μg/ml))
- Inhibition (%) against platelet aggregation, A* (test compound group) (blood platelets; [4]): 33%

Compound: α-[(α,α-dimethyl-2,3,4-trimethoxyphenethylamino)methyl]- 2-hydroxybenzylalcohol 1/2 oxalate [Test compound 11]
- Minimum effective dose (blood sugar-lowering activity) (blood sugar [1]; oral, mice): 1.0 mg/kg
- Platelet aggregation inhibiting activity (blood platelets; [3]): ++
- Inhibition (%) against platelet aggregation, A* (test compound group) (blood platelets; [4]): 59%

Compound: COc1ccc(CCNCC(O)c2ccccc2OC)cc1OC (stereo not drawn) [α-[(3,4-dimethoxyphenethylamino)methyl]-2-methoxybenzylalcohol, reference compound]
- preventive effect upon the aggregation of blood platelets (in words) (blood platelets): no substantial preventive effect
- blood sugar-lowering activity (in words) (blood sugar [2]): show a blood sugar-lowering activity

Compound: COc1ccc(CC(C)(C)NCC(O)c2ccccc2O)cc1 (centres unmarked) [compound 1]
- minimal effective dose (blood sugar [1]; po): 0.3 mg/kg
- Platelet aggregation inhibiting activity (blood platelets; [3]): ++
- inhibition at 100 µg/mL (blood platelets; [5]): 90%

Compound: α-[(α,α-dimethyl-3,4-methylenedioxyphenethylamino)methyl]-2-benzyloxybenzylalcohol 1/2 oxalate [Test compound 16]
- Minimum effective dose (blood sugar-lowering activity) (blood sugar [1]; oral, mice): 0.3 mg/kg
- Platelet aggregation inhibiting activity (blood platelets; [3]): + (not less than 10% inhibition of platelet aggregation but said percentage inhibition was not higher than that of acetylsalicylic acid (100 μg/ml))
- Inhibition (%) against platelet aggregation, A* (test compound group) (blood platelets; [4]): 29%

Compound: α-[(α,α-dimethyl-3,4-dimethoxyphenethylamino)methyl]-2-chlorobenzylalcohol hydrochloride [Test compound 10]
- Minimum effective dose (blood sugar-lowering activity) (blood sugar [1]; oral, mice): 1.0 mg/kg
- Platelet aggregation inhibiting activity (blood platelets; [3]): ++
- Inhibition (%) against platelet aggregation, A* (test compound group) (blood platelets; [4]): 84%
- maximum tolerance dose (M.T.D.) (mice): not less than 100 mg/kg

Compound: α-[(α,α-dimethyl-4-methoxyphenethylamino)methyl]-2-hydroxybenzylalcohol 1/2 oxalate [Test compound 1]
- Minimum effective dose (blood sugar-lowering activity) (blood sugar [1]; oral, mice): 0.3 mg/kg
- Platelet aggregation inhibiting activity (blood platelets; [3]): + (not less than 10% inhibition of platelet aggregation but said percentage inhibition was not higher than that of acetylsalicylic acid (100 μg/ml))
- Inhibition (%) against platelet aggregation, A* (test compound group) (blood platelets; [4]): 22%

Compound: α-[(α,α-dimethyl-2,3,4-trimethoxyphenethylamino)methyl]- 2-methoxybenzylalcohol hydrochloride [Test compound 13]
- Minimum effective dose (blood sugar-lowering activity) (blood sugar [1]; oral, mice): 1.0 mg/kg
- Platelet aggregation inhibiting activity (blood platelets; [3]): + (not less than 10% inhibition of platelet aggregation but said percentage inhibition was not higher than that of acetylsalicylic acid (100 μg/ml))
- Inhibition (%) against platelet aggregation, A* (test compound group) (blood platelets; [4]): 37%

Compound: α-[(α,α-dimethyl-2,3,4-trimethoxyphenethylamino)methyl]- 2-benzyloxybenzylalcohol 1/2 oxalate [Test compound 12]
- Minimum effective dose (blood sugar-lowering activity) (blood sugar [1]; oral, mice): 1.0 mg/kg
- Platelet aggregation inhibiting activity (blood platelets; [3]): ++
- Inhibition (%) against platelet aggregation, A* (test compound group) (blood platelets; [4]): 85%

Compound: COc1ccc(CC(C)(C)NCC(O)c2ccccc2OC)cc1 (centres unmarked) [compound 3]
- minimal effective dose (blood sugar [1]; po): 0.1 mg/kg
- Platelet aggregation inhibiting activity (blood platelets; [3]): ++
- inhibition at 100 µg/mL (blood platelets; [5]): 80%

Compound: α-[(α,α-dimethyl-3,4-methylenedioxyphenethylamino)methyl]-2-hydroxybenzylalcohol 1/2 oxalate [Test compound 15]
- Minimum effective dose (blood sugar-lowering activity) (blood sugar [1]; oral, mice): 5.0 mg/kg
